“Also recorded” adds a separate entry of the source.
Tests used:
[1] = Pharmacokinetic study: plasma cannabinoids after single oral gavage of full-spectrum cannabis extract or individual cannabinoid; settings: for Detection in plasma following oral administration of the full-spectrum extract / tmax / AUC / t1/2 / Cmax / Total plasma exposure in full-spectrum extract relative to individual compound, fold lower: mouse plasma; for Detection in plasma following oral administration of the full-spectrum extract: single oral dose of extract; for Total plasma exposure in full-spectrum extract relative to individual compound, fold lower: equivalent doses
Method: Drugs were administered by oral gavage in a volume of 5 mL/kg. Wildtype male and female mice (postnatal day 21–28, P21-28) received a single oral gavage of either the full-spectrum cannabis extract or an individual cannabinoid. Cannabinoid doses within the full-spectrum extract or as an individual cannabinoid were as follows in mg/kg: CBDA and Δ^9-THCA, 50; CBD, 25; Δ^9-THC, 15; CBC, 9; CBDVA and CBGA, 7; CBN, 2.5; CBG, 1.5; CBDV and Δ^9-THCV, < 1 (Fig. 1a). At selected time points (15–240 min), mice were anesthetized with isoflurane and whole blood was collected by cardiac puncture. Plasma was isolated by centrifugation (9000 g for 10 min, 4 °C) and stored at − 80 °C until assayed.
Concentrations of cannabinoids in plasma samples were quantified as described previously, [24], [58]. […] The organic layer was isolated by centrifugation (4000 g for 10 min) and evaporated to dryness with N2. Samples were reconstituted in acetonitrile and 0.1% formic acid in water (1:3.3, v/v) for supported-liquid extraction (SLE) with methyl tert-butyl ether (MTBE) using Biotage Isolute SLE+ columns (Uppsala, SWE). […] Quantification of cannabinoids was achieved by comparing samples to standards prepared with known amounts of drug.
Plasma concentrations at each time point were averaged and pharmacokinetic parameters were calculated by noncompartmental analysis. Elimination rate constants were determined by linear regression of the terminal component of the concentration–time curve using GraphPad Prism 8.2 (La Jolla, USA). The log-linear trapezoidal method was used to calculated total drug exposure (area under concentration–time curve) using equations described previously.

wildtype MDCK cells = assay: Bidirectional transwell transport assay, wildtype MDCK cell monolayers; settings: wildtype MDCK cells, 10 µM cannabinoid; for P (A > B): apical to basolateral
Method: (§1) We first aimed to determine whether the cannabinoids found in the full-spectrum cannabis extract were substrates of P-glycoprotein and BCRP by using MDCK cells expressing human P-glycoprotein or BCRP in vitro. Transwell assays were conducted to assess bidirectional transport of the cannabinoids detected in plasma following administration of the full-spectrum cannabis extract (CBD, CBDA, CBDVA, CBGA, Δ^9-THC and Δ^9-THCA), including the respective neutral compounds (CBDV and CBG) across wildtype, BCRP and P-glycoprotein MDCK cell monolayers. […] BCRP and P-glycoprotein preferentially transport substrates in the B > A direction.
(§2) Media in the donor chamber was then replaced with that containing 10 µM of an individual cannabinoid in the presence of either vehicle or inhibitor and returned to 37 °C. Aliquots (25 or 50 µL) were removed from the accepter chamber at 60, 120, 180 and 240 min.
(§3) Cannabinoids were analyzed as described above.

[2] = as above; settings: dog, MDCK
Method: as §1, §2, §3

P-glycoprotein = P-glycoprotein (Homo sapiens, UniProt P08183); assay: Bidirectional transwell substrate assay, MDCK cells expressing P-glycoprotein; settings: for P (A > B) / P (B > A) / efflux ratio at 240 min, 10 µM / r (transport efflux ratio): P-glycoprotein MDCK cells, 10 µM cannabinoid; for P (A > B): apical to basolateral; for P (B > A): basolateral to apical; for P-glycoprotein substrate status: human P-glycoprotein MDCK cells vs wildtype; for efflux ratio at 240 min, 10 µM: human, MDCK-MDR1, r (transport efflux ratio); for efflux ratio at 240 min, 10 µM / r (transport efflux ratio): substrate threshold 2.5
Method: as §1, §2, §3

BCRP [3] = target: T1, BCRP (Homo sapiens, UniProt Q9UNQ0); assay: Bidirectional transwell substrate assay, MDCK cells expressing BCRP (with or without elacridar); settings: for P (A > B): apical to basolateral; for P (B > A): basolateral to apical; for BCRP substrate status: human BCRP MDCK cells vs wildtype, with elacridar control; for efflux ratio at 240 min, 10 µM: human, r (transport efflux ratio)
T1 sequence (Q9UNQ0 1-655): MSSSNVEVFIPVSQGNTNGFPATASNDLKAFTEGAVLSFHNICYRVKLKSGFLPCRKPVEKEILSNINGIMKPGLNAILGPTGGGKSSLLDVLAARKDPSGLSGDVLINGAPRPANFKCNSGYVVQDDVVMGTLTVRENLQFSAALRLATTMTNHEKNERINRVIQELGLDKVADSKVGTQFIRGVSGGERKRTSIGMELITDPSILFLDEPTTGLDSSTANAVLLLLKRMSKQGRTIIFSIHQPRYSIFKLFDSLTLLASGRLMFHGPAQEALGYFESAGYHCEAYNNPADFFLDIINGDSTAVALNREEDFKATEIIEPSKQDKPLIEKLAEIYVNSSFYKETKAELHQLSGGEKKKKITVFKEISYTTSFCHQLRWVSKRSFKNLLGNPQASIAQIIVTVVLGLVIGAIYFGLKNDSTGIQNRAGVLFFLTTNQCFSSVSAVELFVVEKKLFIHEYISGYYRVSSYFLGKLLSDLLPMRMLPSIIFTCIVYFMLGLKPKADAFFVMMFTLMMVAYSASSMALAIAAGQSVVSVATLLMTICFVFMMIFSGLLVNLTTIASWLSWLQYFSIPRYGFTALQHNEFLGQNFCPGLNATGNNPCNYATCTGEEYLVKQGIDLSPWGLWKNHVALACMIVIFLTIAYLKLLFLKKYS
Method: as §1, §2, §3

BCRP [4] = target: T1, BCRP; assay: Inhibition of BCRP-mediated transport of prazosin (transwell, BCRP MDCK cells)
BCRP [5] = target: T1, BCRP; assay: Inhibition of BCRP-mediated transport of CBDA by cannabinoids (transwell, BCRP MDCK cells); settings: BCRP MDCK cells
Method: Cannabinoids were tested at 10 µM. […] Data are expressed as means ± SEM, with n = 4 per time point. […] Schematic created using BioRender.com.
as §3

[6] = BCRP MDCK cells, 10 µM cannabinoid
[7] = BCRP MDCK cells, 10 µM cannabinoid, substrate threshold 1.5
[8] = oral, administered as individual cannabinoid, doses mg/kg: CBD 25, CBDA 50, CBDVA 7, CBGA 7, THC 15, THCA 50
[9] = oral, administered as individual cannabinoid, doses mg/kg: CBD 25, CBDA 50, CBDVA 7, THC 15, THCA 50
[10] = oral, administered in full-spectrum extract, doses mg/kg: CBD 25, CBDA 50, CBDVA 7, CBGA 7, THC 15, THCA 50

Chain of P-glycoprotein (P08183 whole entry): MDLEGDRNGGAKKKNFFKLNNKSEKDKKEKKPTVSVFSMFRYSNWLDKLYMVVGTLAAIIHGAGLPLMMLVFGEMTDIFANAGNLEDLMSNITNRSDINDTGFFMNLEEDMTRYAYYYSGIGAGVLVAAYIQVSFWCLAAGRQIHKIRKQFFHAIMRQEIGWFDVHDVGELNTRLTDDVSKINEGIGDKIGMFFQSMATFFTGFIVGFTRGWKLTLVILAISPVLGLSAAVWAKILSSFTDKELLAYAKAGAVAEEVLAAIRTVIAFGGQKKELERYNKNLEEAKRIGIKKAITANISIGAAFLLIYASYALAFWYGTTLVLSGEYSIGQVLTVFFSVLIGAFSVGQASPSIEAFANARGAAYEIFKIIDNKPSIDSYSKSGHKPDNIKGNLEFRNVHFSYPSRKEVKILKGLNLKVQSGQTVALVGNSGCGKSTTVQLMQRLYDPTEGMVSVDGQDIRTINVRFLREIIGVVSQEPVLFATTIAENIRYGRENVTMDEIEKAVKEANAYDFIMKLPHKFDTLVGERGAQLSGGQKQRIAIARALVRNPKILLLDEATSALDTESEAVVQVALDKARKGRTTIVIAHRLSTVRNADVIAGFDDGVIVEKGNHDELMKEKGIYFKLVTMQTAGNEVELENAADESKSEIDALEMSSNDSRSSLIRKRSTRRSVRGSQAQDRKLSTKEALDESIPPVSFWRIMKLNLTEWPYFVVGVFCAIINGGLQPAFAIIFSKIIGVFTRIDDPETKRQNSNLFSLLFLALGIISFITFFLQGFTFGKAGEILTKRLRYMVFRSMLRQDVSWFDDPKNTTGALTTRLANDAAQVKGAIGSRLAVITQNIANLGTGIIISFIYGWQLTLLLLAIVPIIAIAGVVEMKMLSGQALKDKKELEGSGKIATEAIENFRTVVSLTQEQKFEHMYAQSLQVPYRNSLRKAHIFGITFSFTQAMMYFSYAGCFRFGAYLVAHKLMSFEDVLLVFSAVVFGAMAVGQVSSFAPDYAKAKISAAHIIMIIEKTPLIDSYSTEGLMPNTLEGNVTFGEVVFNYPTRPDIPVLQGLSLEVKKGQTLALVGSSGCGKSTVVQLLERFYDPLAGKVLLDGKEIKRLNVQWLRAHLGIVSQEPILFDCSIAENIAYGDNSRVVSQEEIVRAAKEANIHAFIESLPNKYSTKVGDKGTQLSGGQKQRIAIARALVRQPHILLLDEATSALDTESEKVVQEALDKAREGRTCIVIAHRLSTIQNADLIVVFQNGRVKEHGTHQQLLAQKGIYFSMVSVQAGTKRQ

Row | SMILES | Detection in plasma following oral administration of the full-spectrum extract [1] | P (A > B) (wildtype MDCK cells) | Papp B→A at 240 min, 10 µM [2] [×10⁻⁶ cm/s] | P (A > B) (P-glycoprotein) | P (B > A) (P-glycoprotein) | P-glycoprotein substrate status (P-glycoprotein) | P (A > B) (BCRP [3]; [6]) | P (B > A) (BCRP [3]; [6]) | BCRP substrate status (BCRP [3]) | Total plasma exposure in full-spectrum extract relative to individual compound, fold lower ([1]; oral) | further results
1 | CCCCCc1cc(O)c2c(c1)OC(C)(CCC=C(C)C)C=C2 (stereo not shown) [CBC] | not detected | – | – | – | – | – | – | – | – | – | –
2 | C=C(C)[C@@H]1CCC(C)=C[C@H]1c1c(O)cc(CCC)cc1O [CBDV, cannabidivarin] | not detected | 43 ± 5 × 10^−5 cm/s | 440 ± 50 | 30 ± 8 × 10^−5 cm/s | 34 ± 3 × 10^−5 cm/s | not substrates of either BCRP or P-glycoprotein | 63 ± 14 × 10^−5 cm/s | 90 ± 9 × 10^−5 cm/s | not considered a substrate of BCRP; also recorded: not substrates of either BCRP or P-glycoprotein | – | efflux ratio at 240 min, 10 µM [2]: 1 ± 0.2; efflux ratio at 240 min, 10 µM (P-glycoprotein): 1.1 ± 0.3; efflux ratio at 240 min, 10 µM (BCRP [3]; [7]): 1.4 ± 0.2
3 | C=C(C)[C@@H]1CCC(C)=C[C@H]1c1c(O)cc(CCC)c(C(=O)O)c1O [CBDVA, cannabidivarinic acid] | detected | 22 ± 3 × 10^−5 cm/s | – | 14 ± 4 × 10^−5 cm/s | 22 ± 2 × 10^−5 cm/s | not P-glycoprotein substrates | 24 ± 9 × 10^−5 cm/s | 47 ± 6 × 10^−5 cm/s | BCRP substrates | 2–4 × | P (A > B) of prazosin in the presence of inhibitor (BCRP [4]; 10 µM inhibitor, 1 µM prazosin): 15 ± 3 × 10^−2 cm/s; P (B > A) of prazosin in the presence of inhibitor (BCRP [4]; 10 µM inhibitor, 1 µM prazosin): 201 ± 4 × 10^−2 cm/s; r (transport efflux ratio) (wildtype MDCK cells): 1.1 ± 0.2; P (B > A) (wildtype MDCK cells; basolateral to apical): 25 ± 2 × 10^−5 cm/s; r (transport efflux ratio) (P-glycoprotein): 1.6 ± 0.3; r (transport efflux ratio) (BCRP [3]; [7]): 2.0 ± 0.4; tmax [1, 8]: 0.25 h; AUC [1, 9]: 7459 µg·min/mL; t1/2 [1, 9]: 2.5 h; Cmax ([1]; oral, administered as individual cannabinoid, doses mg/kg: CBDA 50, CBDVA 7, CBGA 7): 26000 ± 2000 ng/mL; AUC [1, 10]: 3844 µg·min/mL; t1/2 [1, 10]: 2 h; tmax [1, 10]: 1 h; Cmax ([1]; oral, administered in full-spectrum extract, doses mg/kg: CBDA 50, CBDVA 7, CBGA 7): 11000 ± 1000 ng/mL; Effect on BCRP-mediated transport of CBDA (BCRP [5]; 10 µM, compared to vehicle): Neither CBD nor CBDVA affected CBDA transport via BCRP; P (A > B) of CBDA in the presence of inhibitor (BCRP [5]; cannabinoids tested at 10 µM): 8 ± 1 × 10^−5 cm/s; P (B > A) of CBDA in the presence of inhibitor (BCRP [5]; cannabinoids tested at 10 µM): 63 ± 4 × 10^−5 cm/s
4 | CCCCCc1cc(O)c(C/C=C(\C)CCC=C(C)C)c(O)c1 [CBG, cannabigerol] | not detected | 12 ± 5 × 10^−5 cm/s | 100 ± 30 | 19 ± 5 × 10^−5 cm/s | 14 ± 2 × 10^−5 cm/s | not P-glycoprotein substrates | 47 ± 9 × 10^−5 cm/s | 53 ± 10 × 10^−5 cm/s | weak substrates of BCRP | – | Effect on BCRP-mediated transport of prazosin (BCRP [4]; 10 µM, compared to vehicle): not prazosin transport; efflux ratio at 240 min, 10 µM [2]: 0.8 ± 0.5; efflux ratio at 240 min, 10 µM (BCRP [3]; [7]): 1.1 ± 0.3
5 | CCCCCc1cc(O)c(C/C=C(\C)CCC=C(C)C)c(O)c1C(=O)O [CBGA, cannabigerolic acid] | detected | – | 10 ± 10 | 5 ± 2 × 10^−5 cm/s | 3 ± 1 × 10^−5 cm/s | not substrates of either BCRP or P-glycoprotein | – | 5 ± 1 × 10^−5 cm/s | not substrates of either BCRP or P-glycoprotein | 2–4 × | efflux ratio at 240 min, 10 µM (P-glycoprotein): 0.7 ± 0.5; AUC ([1]; both, mouse, plasma, po, 7 mg/kg, AUC (does not include terminal phase), administered as individual cannabinoid, CBGA 7 mg/kg): 8670 µg·min/mL; AUC ([1]; both, mouse, plasma, po, AUC, oral, administered in full-spectrum extract, doses mg/kg: CBD 25, CBDA 50, CBDVA 7, CBGA 7, THC 15, THCA 50): 5170 µg·min/mL; Cmax ([1]; both, mouse, plasma, po, Cmax, oral, administered as individual cannabinoid, doses mg/kg: CBDA 50, CBDVA 7, CBGA 7): 48000 ± 2000 ng/mL; Cmax ([1]; both, mouse, plasma, po, Cmax, oral, administered in full-spectrum extract, doses mg/kg: CBDA 50, CBDVA 7, CBGA 7): 12000 ± 1000 ng/mL; half-life ([1]; both, mouse, plasma, po, t1/2, mouse plasma, oral, administered in full-spectrum extract, doses mg/kg: CBD 25, CBDA 50, CBDVA 7, CBGA 7, THC 15, THCA 50): 4.97 h; tmax ([1]; both, mouse, plasma, po, tmax, oral, administered as individual cannabinoid, doses mg/kg: CBD 25, CBDA 50, CBDVA 7, CBGA 7, THC 15, THCA 50): 2 h; tmax ([1]; both, mouse, plasma, po, tmax, oral, administered in full-spectrum extract, doses mg/kg: CBD 25, CBDA 50, CBDVA 7, CBGA 7, THC 15, THCA 50): ≤ 1 h
6 | CCCCCc1cc(O)c2c(c1)OC(C)(C)c1ccc(C)cc1-2 [CBN, cannabinol] | not detected | – | – | – | – | – | – | – | – | – | –
7 | CCCCCc1cc2c(c(O)c1C(=O)O)C1C=C(C)CCC1C(C)(C)O2 (stereo not shown) [Δ^9-THCA, Δ^9-tetrahydrocannabinolic acid] | detected | – | – | 17 ± 5 × 10^−5 cm/s | 8 ± 3 × 10^−5 cm/s | not substrates of either BCRP or P-glycoprotein | – | 6 ± 2 × 10^−5 cm/s | not substrates of either BCRP or P-glycoprotein | 2–4 × | r (transport efflux ratio) (P-glycoprotein): 0.5 ± 0.4; tmax [1, 8]: 0.5 h; AUC [1, 9]: 173 µg·min/mL; t1/2 [1, 9]: 0.617 h; Cmax ([1]; oral, administered as individual cannabinoid, doses mg/kg: CBD 25, THC 15, THCA 50): 2094 ± 74 ng/mL; AUC [1, 10]: 44 µg·min/mL; t1/2 [1, 10]: 0.767 h; tmax [1, 10]: 0.75 h; Cmax ([1]; oral, administered in full-spectrum extract, doses mg/kg: CBD 25, THC 15, THCA 50): 465 ± 64 ng/mL
8 | CCCc1cc(O)c2c(c1)OC(C)(C)[C@@H]1CCC(C)=C[C@@H]21 [Δ^9-THCV, Δ^9-tetrahydrocannabivarin] | not detected | – | – | – | – | – | – | – | – | – | –
